Earlier results, collected in paper PMC8043539 (Journal of Enzyme Inhibition and Medicinal Chemistry, 2021).

target: Sapp1p; settings: inhibition of Sapp1p from C. parapsilosis

Row | Ki | Compound
1 | 0.1 nM | CC(C)[C@H](NC(=O)OC(C)(C)C)C(=O)N[C@H](C(=O)N[C@@H](Cc1ccccc1)[C@@H](O)CC(=O)N[C@@H](C)C(=O)N[C@@H](Cc1ccccc1)[C@@H](O)CC(N)=O)C(C)C [KB70, tert-butyl-oxycarbonyl-valine-valine-phenylstatine-alanine-phenylstatine-NH2]
2 | 14.6 nM | COC(=O)[C@H](C)NC(=O)C[C@H](O)[C@H](Cc1ccccc1)NC(=O)[C@@H](NC(=O)[C@@H](NC(=O)OC(C)(C)C)C(C)C)C(C)C [KB74, tert-butyl-oxycarbonyl-valine-valine-phenylstatine-alanine-OMe]
3 | 0.3 nM | isovaleric acid-valine-valine-statine-alanine-statine [Pepstatin A, reference compound]
